Like-named read-outs stand apart in the source and are kept apart here.
Columns and labels:
Assay in all cases: growth of strains streaked on Sabouraud agar containing the products
Assay type in all cases: cell-based
[1] = tested on: Epidermophyton floccosum; settings: Epid.Flocosum; for activity at 10 µg/mL: read-out: % DE CROISSANCE; for inhibition at 2 µg/mL / inhibition at 10 µg/mL / inhibition at 20 µg/mL / inhibition at 50 µg/mL: read-out: inhibition de la croissance
Procedure: (§1) Ces molécules ont été incorporées dans un milieu gélosé dit de Sabouraud (peptone 10g/l, glucose 10 g/l, gomme agar 15 g/l).
(§2) Des souches de diverses espèces de champignons ont été ensemencées par stries par la méthode de Stires.
(§3) Le pourcentage de croissance a été mesuré au cours du temps, pour des périodes allant jusqu'à 21 jours, pour certaines des souches testées.
(§4) Les quantités de pipéronyl butoxyde, et de cyclopyroxolamine utilisées sont identiques et sont de 10 ou 20 µg/ml dans le cas de l'association entre ces deux composés.
(§5) Dans le cas de l'association entre le pipéronyl butoxyde et l'éconazole, elles sont respectivement de 10 ou 20 µg/ml de pipéronyl butoxyde et de 1 µg/ml d'éconazole.
(§6) Des souches appartenant aux espèces suivantes ont été testées: Microsporum canis, Trichophyton rubrum, Trichophyton interdigitale, Trichophyton mentagrophytes, Microsporum persicolor, Epidermophyton floccosum, Trichophyton violaceum et Trichophyton soudanense.
(§7) L'activité du pipéronyl butoxyde seul a été testée à diverses concentrations, comme indiqué dans le tableau 1 sur le milieu de Sabouraud, dépourvu de tout autre fongicide.

[2] = tested on: Microsporum canis; settings: for activity at 20 µg/mL: read-out: % DE CROISSANCE; for inhibition at 2 µg/mL / inhibition at 10 µg/mL / inhibition at 20 µg/mL / inhibition at 50 µg/mL: Micro. Canis, read-out: inhibition de la croissance
Procedure: as §1, §2, §3, §4, §5, §6, §7

[3] = tested on: Microsporum persicolor; settings: Nannizzia persicolor, Micro.Persicolor; for activity at 10 µg/mL: 10µg/ml each product, read-out: % DE CROISSANCE; for inhibition at 2 µg/mL / inhibition at 10 µg/mL / inhibition at 20 µg/mL / inhibition at 50 µg/mL: read-out: inhibition de la croissance
Procedure: as §1, §2, §3, §4, §5, §6, §7

[4] = tested on: Trichophyton interdigitale; settings: Tric.Interdigitale; for activity at 20 µg/mL: read-out: % DE CROISSANCE
Procedure: as §1, §2, §3, §4, §5, §6, §7

CCCCOCCOCCOCc1cc2c(cc1CCC)OCO2 [Piperonyl., pipéronyl butoxyde]
activity at 10 µg/mL ([1]; 0 h, J0, 10µg/ml each product): 0%
activity at 10 µg/mL ([1]; 96 h, J4, 10µg/ml each product): 0%
activity at 10 µg/mL ([1]; 144 h, J6, 10µg/ml each product): 10%
activity at 10 µg/mL ([1]; 240 h, J10, 10µg/ml each product): 45%
activity at 10 µg/mL ([1]; 336 h, J14, 10µg/ml each product): 70%
inhibition at 2 µg/mL ([1]; J+4, 2 µg/ml): 15%
inhibition at 10 µg/mL ([1]; J+4, 10 µg/ml): 0%
inhibition at 20 µg/mL ([1]; J+4, 20 µg/ml): 0%
inhibition at 50 µg/mL ([1]; J+4, 50 µg/ml): 0%
inhibition at 2 µg/mL ([1]; J+10, 2 µg/ml): 90%
inhibition at 10 µg/mL ([1]; J+10, 10 µg/ml): 45%
inhibition at 20 µg/mL ([1]; J+10, 20 µg/ml): 25%
inhibition at 50 µg/mL ([1]; J+10, 50 µg/ml): 0%
inhibition at 2 µg/mL ([1]; J+14, 2 µg/ml): 100%
inhibition at 10 µg/mL ([1]; J+14, 10 µg/ml): 70%
inhibition at 20 µg/mL ([1]; J+14, 20 µg/ml): 30%
inhibition at 50 µg/mL ([1]; J+14, 50 µg/ml): 0%
activity at 20 µg/mL ([2]; 0 h): 0%
activity at 20 µg/mL ([2]; 96 h): 0%
activity at 20 µg/mL ([2]; 144 h): 5%
activity at 20 µg/mL ([2]; 240 h): 45%
activity at 20 µg/mL ([2]; 336 h): 60%
inhibition at 2 µg/mL ([2]; J+4, 2 µg/ml): 20%
inhibition at 10 µg/mL ([2]; J+4, 10 µg/ml): 15%
inhibition at 20 µg/mL ([2]; J+4, 20 µg/ml): 0%
inhibition at 50 µg/mL ([2]; J+4, 50 µg/ml): 0%
inhibition at 2 µg/mL ([2]; J+10, 2 µg/ml): 80%
inhibition at 10 µg/mL ([2]; J+10, 10 µg/ml): 60%
inhibition at 20 µg/mL ([2]; J+10, 20 µg/ml): 45%
inhibition at 50 µg/mL ([2]; J+10, 50 µg/ml): 0%
inhibition at 2 µg/mL ([2]; J+14, 2 µg/ml): 100%
inhibition at 10 µg/mL ([2]; J+14, 10 µg/ml): 80%
inhibition at 20 µg/mL ([2]; J+14, 20 µg/ml): 60%
inhibition at 50 µg/mL ([2]; J+14, 50 µg/ml): 0%
activity at 10 µg/mL ([3]; 0 h, J0): 0%
activity at 10 µg/mL ([3]; 96 h, J4): 0%
activity at 10 µg/mL ([3]; 144 h, J6): 20%
activity at 10 µg/mL ([3]; 240 h, J10): 40%
activity at 10 µg/mL ([3]; 336 h, J14): 75%
inhibition at 2 µg/mL ([3]; J+4): 20%
inhibition at 10 µg/mL ([3]; J+4): 0%
inhibition at 20 µg/mL ([3]; J+4): 0%
inhibition at 50 µg/mL ([3]; J+4): 0%
inhibition at 2 µg/mL ([3]; J+10): 85%
inhibition at 10 µg/mL ([3]; J+10): 40%
inhibition at 20 µg/mL ([3]; J+10): 20%
inhibition at 50 µg/mL ([3]; J+10): 0%
inhibition at 2 µg/mL ([3]; J+14): 100%
inhibition at 10 µg/mL ([3]; J+14): 75%
inhibition at 20 µg/mL ([3]; J+14): 25%
inhibition at 50 µg/mL ([3]; J+14): 0%
activity at 20 µg/mL ([4]; 0 h, J0, 20µg/ml each product): 0%
activity at 20 µg/mL ([4]; 96 h, J4, 20µg/ml each product): 5%
activity at 20 µg/mL ([4]; 144 h, J6, 20µg/ml each product): 25%
activity at 20 µg/mL ([4]; 240 h, J10, 20µg/ml each product): 60%
activity at 20 µg/mL ([4]; 336 h, J14, 20µg/ml each product): 70%
inhibition at 2 µg/mL ([4]; J+4, 2 µg/ml, read-out: inhibition de la croissance): 30%
inhibition at 10 µg/mL ([4]; J+4, 10 µg/ml, read-out: inhibition de la croissance): 15%
inhibition at 20 µg/mL ([4]; J+4, 20 µg/ml, read-out: inhibition de la croissance): 5%

Reference: patent EP1096933B1, “USE OF AN INHIBITOR OF CYTOCHROME P450 OPTIONALLY COMBINED WITH AN ANTIFUNGAL AGENT FOR TREATING MYCOSES” (priority 1998, dated 2000)
